Test results published in US20080317857A1, “V-Atpase Inhibitors of Use in the Treatment of Septic Shock” (Brane Discovery S.r.l., priority 2005, published 2008).
Like-named read-outs stand apart in the source and are kept apart here.

Tests used:
[1] = tested on: rat ovariectomized model; conditions: cited from earlier work
[2] = tested on: V-ATPase; conditions: cited from earlier work
[3] = tested on: NADPH-oxidase activation (H2O2 release) in Monocytes; assay: Respiratory burst (H2O2 assay) in monocytes; type: cell-based, human; conditions: for inhibition at 0.4 µM / inhibition at 1 µM / inhibition at 0.0005 µM / inhibition at 0.001 µM: Homo sapiens, Monocyte; for inhibition at 0.4 µM: [cpd] 0.4 μM; for inhibition at 1 µM: [cpd] 1.0 μM; for inhibition at 0.0005 µM: [cpd] 0.0005 μM
Description: (§1) NADPH-oxidase activation was measured as induction of H2O2 release (derived from dismutation of O2^−) triggered in PMNs and monocytes by PMA (200 ng/ml). Briefly, PMNs and monocytes were pretreated at 37° C. for 30-60 min with test compound at different concentrations, and stimulated with phorbol 12-myristate 13-acetate (PMA, 200 ng/ml) dissolved in 0.5 ml of a standard reaction mixture. Release of H2O2 was evaluated in real time at time points of 5 min by using a microplate fluorescence reader (Perkin-Elmer). Results are expressed as nmoles of H2O2 released over time by 10^6 cells. Shown are dose-response curves of inhibitory effect on H2O2 release over 60 min.

[4] = tested on: NADPH-oxidase activation (H2O2 release) in PMNs; assay: Respiratory burst (H2O2 assay) in PMNs; type: cell-based, human; conditions: Homo sapiens, read-out: Inhibition of H2O2 release induced by PMA in PMNs (% PMA control); for inhibition at 0.0005 µM: [cpd] 0.0005 μM; for inhibition at 0.001 µM: [cpd] 0.001 μM
Description: as §1

[5] = 0.5 h, 30 min, read-out: Inhibition of H2O2 release induced by PMA in Monocytes (% PMA control)
[6] = 40 min, 40 min, read-out: Inhibition of H2O2 release induced by PMA in Monocytes (% PMA control)
[7] = 50 min, 50 min, read-out: Inhibition of H2O2 release induced by PMA in Monocytes (% PMA control)

In the case of O=C(Nc1cccc2c1nc(C(F)(F)F)n2CC(=O)N1CCOCC1)c1c(Cl)cccc1Cl [FR-177995], the anti-osteoporotic activity [1] is given as “high anti-osteoporotic activity”, the “concentrations generally active in inhibiting V-ATPase” value [2] is given as 0.4 to 1 µM and the inhibition at 0.4 µM [3, 5] is given as 27.1%. For the same compound, the inhibition at 1 µM [3, 5] was 21.3%, the inhibition at 0.4 µM [3, 6] was 29% and the inhibition at 1 µM [3, 6] was 6.3%. For the same compound, the inhibition at 0.4 µM [3, 7] was 26.7%, the inhibition at 1 µM [3, 7] was 5.5% and the “respiratory burst / NADPH-oxidase activation induced by PMA in monocytes (in words)” value ([3]; PMA 200 ng/ml) was “had effect”.

For CO/C1=C\C(C)=C\[C@@H](C)[C@@H](O)[C@@H](C)C/C(C)=C/C=C/[C@H](OC)[C@@H]([C@@H](C)[C@@H](O)[C@H](C)[C@@]2(O)C[C@@H](O)[C@H](C)[C@@H](C(C)C)O2)OC1=O [Bafilomycin A1], the “inhibition of V-ATPase (in words)” value ([2]; literature) is given as “very potent and highly specific inhibitors”, the inhibition at 0.0005 µM [3, 5] is given as 22.1% and the inhibition at 0.001 µM ([3]; 0.5 h, [cpd] 0.001 μM, 30 min, read-out: Inhibition of H2O2 release induced by PMA in Monocytes (% PMA control)) is given as 30.8%. For the same compound, the inhibition at 0.0005 µM [3, 6] was 28.2%, the inhibition at 0.001 µM ([3]; 40 min, [cpd] 0.001 μM, 40 min, read-out: Inhibition of H2O2 release induced by PMA in Monocytes (% PMA control)) was 37.2% and the inhibition at 0.0005 µM [3, 7] was 32.4%. For the same compound, the inhibition at 0.001 µM ([3]; 50 min, [cpd] 0.001 μM, 50 min, read-out: Inhibition of H2O2 release induced by PMA in Monocytes (% PMA control)) was 47.9%, the inhibition at 0.001 µM ([3]; 1 nM concentration, read-out: inhibition of the respiratory burst in monocytes) was 48% and the inhibition at 0.0005 µM ([4]; 0.5 h, 30 min) was 7.1%. The inhibition at 0.001 µM ([4]; 0.5 h, 30 min) was 26.4%, the inhibition at 0.0005 µM ([4]; 40 min, 40 min) was 9.8% and the inhibition at 0.001 µM ([4]; 40 min, 40 min) was 27.2%. The inhibition at 0.0005 µM ([4]; 50 min, 50 min) was 9.3% and the inhibition at 0.001 µM ([4]; 50 min, 50 min) was 29.9%.
